This note sets out measurements from paper PMC9090415, “Discovery of small molecule inhibitors of Plasmodium falciparum apicoplast DNA polymerase” (Journal of Enzyme Inhibition and Medicinal Chemistry, 2022).

Each structure is given as a SMILES string.

For this test, the target named is P. falciparum apicoplast DNA polymerase (Pf-apPOL) (Plasmodium falciparum, UniProt Q8ILY1). The test is described as follows: Fluorescence-based high-throughput DNA polymerase assay (molecular beacon), primary screen and dose-response. In kind it is biochemical. A digest of the protocol:
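Single-point screening used 10 µM compound with 20 nM polymerase, 20 nM hairpin substrate and 6 µM dNTPs for 90 min at 25 °C. Confirmatory titrations (2.5–80 µM) followed fluorescence at three times, and IC50 was derived from a fit including a cooperativity term n.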

[1] abbreviates: supplemental file 2, sheet IC50 nontoxic compounds; Pf-apPOL.

Sequence of P. falciparum apicoplast DNA polymerase (Pf-apPOL) (Q8ILY1 entry or part of it): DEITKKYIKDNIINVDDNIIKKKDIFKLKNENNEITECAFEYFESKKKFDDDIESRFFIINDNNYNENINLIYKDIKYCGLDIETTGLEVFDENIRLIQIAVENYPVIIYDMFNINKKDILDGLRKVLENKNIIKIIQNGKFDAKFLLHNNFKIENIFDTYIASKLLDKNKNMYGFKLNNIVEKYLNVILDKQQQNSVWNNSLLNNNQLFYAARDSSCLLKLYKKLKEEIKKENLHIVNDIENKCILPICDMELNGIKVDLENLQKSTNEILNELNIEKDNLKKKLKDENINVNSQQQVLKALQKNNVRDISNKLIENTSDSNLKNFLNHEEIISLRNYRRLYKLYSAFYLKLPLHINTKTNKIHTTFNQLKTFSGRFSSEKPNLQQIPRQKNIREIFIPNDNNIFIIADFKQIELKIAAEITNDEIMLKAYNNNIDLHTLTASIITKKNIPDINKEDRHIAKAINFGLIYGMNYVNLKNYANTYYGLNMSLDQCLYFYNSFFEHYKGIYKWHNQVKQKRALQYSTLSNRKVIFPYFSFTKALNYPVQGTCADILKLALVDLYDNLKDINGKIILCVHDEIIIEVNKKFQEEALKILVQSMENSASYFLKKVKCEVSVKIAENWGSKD

Consider `O=c1cc(CN2CCCCC2)c2cc3c(cc2o1)OCO3` [Molecule 56, O=c1cc(CN2CCCCC2)c2c(o1)cc1c(c2)OCO1], for which the “DNA Pol” value ('DNA Pol' of the 186 hits list (primary screen result); unit not given; 90 min, 10 µM) is given as 34 and the “DNA Pol” value (primary screen value of the library well; unit not given; 90 min, 10 µM) is 34. In addition, the “% inhibition Apo pol 10'” value runs as follows: (DRC-1; 10'; concentration 2.5) -1.492%; (DRC-1; 10'; concentration 5) 3.303%; (DRC-1; 10'; concentration 10) 19.9772%; (DRC-1; 10'; concentration 20) 32.3483%; (DRC-1; 10'; concentration 40) 45.3079%; (DRC-1; 10'; concentration 80) 89.8826%. Further, the “% inhibition Apol 90'” value runs as follows: (DRC-1; 90'; concentration 2.5) 2.551%; (DRC-1; 90'; concentration 5) 7.455%; (DRC-1; 90'; concentration 10) 24.7772%; (DRC-1; 90'; concentration 20) 41.1965%; (DRC-1; 90'; concentration 40) 58.3854%; (DRC-1; 90'; concentration 80) 90.5438%. Further, the “% inhibition apPOL 180'” value is on record as 3.723% (DRC-1; 180'; concentration 2.5); 9.055% (DRC-1; 180'; concentration 5); 32.8614% (DRC-1; 180'; concentration 10); 57.3951% (DRC-1; 180'; concentration 20); 81.7381% (DRC-1; 180'; concentration 40); 95.8992% (DRC-1; 180'; concentration 80). Moreover, the “% inhibition apPOL 180'” value is, setting by setting: (DRC-2, 180', concentration 10 (unit not given)) 21%; (DRC-2; 180'; concentration 2.5) 4%; (DRC-2; 180'; concentration 2.5 (unit not given)) 4%; (DRC-2; 180'; concentration 5) -66%; (DRC-2; 180'; concentration 10) 21%; (DRC-2; 180'; concentration 20) 32%. The “% inhibition apPOL 180'” value was found to be 45% (DRC-2; 180'; concentration 40) and 64% (DRC-2; 180'; concentration 80). Moreover, the “% inhibition Apo pol 5'” value reads like this: (DRC-2, 5', concentration 10 (unit not given)) 21%; (DRC-2; 5'; concentration 2.5) 5.61%; (DRC-2; 5'; concentration 5) 6%; (DRC-2; 5'; concentration 10) 21%; (DRC-2; 5'; concentration 20) 35%; (DRC-2; 5'; concentration 40) 50%. In addition, the “% inhibition Apo pol 5'” value (DRC-2; 5'; concentration 80) is recorded as 60%. Besides, the “% inhibition Apol 40'” value by setting is: (DRC-2, 40', concentration 2.5 (unit not given)) 8%; (DRC-2, 40', concentration 5 (unit not given)) 4%; (DRC-2, 40', concentration 20 (unit not given)) 39%; (DRC-2, 40', concentration 80 (unit not given)) 68%; (DRC-2; 40'; concentration 2.5) 8%; (DRC-2; 40'; concentration 5) 4%. Further, the “% inhibition Apol 40'” value (DRC-2; 40'; concentration 10) is 26%, the “% inhibition Apol 40'” value (DRC-2; 40'; concentration 20) came to 39%, the “% inhibition Apol 40'” value (DRC-2; 40'; concentration 40) was 54% and the “% inhibition Apol 40'” value (DRC-2; 40'; concentration 80) is recorded as 68%. Further, the “% inhibition ApPOL 90'” value is listed as 39% (DRC-2, 90', concentration 20 (unit not given)); 68% (DRC-2, 90', concentration 80 (unit not given)); 8% (DRC-2; 90'; concentration 2.5); 8% (DRC-2; 90'; concentration 2.5 (unit not given)); -0.711% (DRC-2; 90'; concentration 5); 27% (DRC-2; 90'; concentration 10). The “% inhibition ApPOL 90'” value reads like this: (DRC-2; 90'; concentration 20) 39%; (DRC-2; 90'; concentration 40) 53%; (DRC-2; 90'; concentration 80) 68%.

Usually IC50 stands for the concentration at which inhibition is half-maximal. Take `O=c1cc(CN2CCCCC2)c2cc3c(cc2o1)OCO3` [Molecule 56]: the IC50 under setting [1] turned out to be 38.1 µM.

In the case of `Cc1ccc(N2CCC(NC(=O)Cc3cccs3)C2=O)cc1C` (centres unmarked) [Molecule 57], under setting [1], the IC50 worked out at 29 µM.

For `Cn1nc(-c2nc(-c3ccccc3)no2)c2c1CCN(C(=O)Cc1cccs1)C2` [Molecule 58], under setting [1], the IC50 was 18.5 µM.

As for `O=C1CSC2=NC3=C(CCc4ccccc43)C(c3cccs3)N12` (centres unmarked) [Molecule 59], the IC50 under setting [1] stood at 14.7 µM.

For the compound `Cc1cc2[nH]c(C(=O)Nc3ccc(F)cc3)c(CN3CCOCC3)c2s1` [Molecule 60], the IC50 under setting [1] was determined as 21.6 µM.

As to `C#CC(C=CC)OC(=O)c1ccccc1C(=O)O` (centres unmarked) [Molecule 61], the half-maximal inhibitory concentration (IC50) under setting [1] stood at 18.3 µM.

Consider `O=C(Nc1nnc(-c2ccno2)o1)c1ccc2ncsc2c1` [Molecule 62, O=C(c1ccc2c(c1)scn2)Nc1nnc(o1)c1ccno1], for which the “DNA Pol” value reads like this: ('DNA Pol'; screening value, unit not given; 90 min, 10 µM) 57; (primary screen hit value, DNA Pol (186 hits); 90 min, 10 µM) 57. The “% inhibition Apo pol 10'” value reads like this: (DRC-1; 10'; concentration 2.5) 10.861%; (DRC-1; 10'; concentration 5) 15.6525%; (DRC-1; 10'; concentration 10) 33.6921%; (DRC-1; 10'; concentration 20) 64.2838%; (DRC-1; 10'; concentration 40) 78.1502%; (DRC-1; 10'; concentration 80) 81.399%. Also, the “% inhibition Apol 90'” value is -2.7392% (DRC-1; 90'; concentration 2.5); 1.406% (DRC-1; 90'; concentration 5); 10.5152% (DRC-1; 90'; concentration 10); 33.263% (DRC-1; 90'; concentration 20); 51.9867% (DRC-1; 90'; concentration 40); 68.6824% (DRC-1; 90'; concentration 80). Besides, the “% inhibition apPOL 180'” value by setting is: (DRC-1; 180'; concentration 2.5) -12.5523%; (DRC-1; 180'; concentration 5) -8.9419%; (DRC-1; 180'; concentration 10) -4.993%; (DRC-1; 180'; concentration 20) 10.6012%; (DRC-1; 180'; concentration 40) 29.0771%; (DRC-1; 180'; concentration 80) 50.4309%. The “% inhibition apPOL 180'” value runs as follows: (DRC-2, 180', concentration 2.5) -3%; (DRC-2, 180', concentration 5) -6%; (DRC-2, 180', concentration 10) 14%; (DRC-2, 180', concentration 20) 21%; (DRC-2, 180', concentration 40) 46%; (DRC-2, 180', concentration 80) 61%. The “% inhibition Apo pol 5'” value was 9% (DRC-2, 5', concentration 2.5); 11% (DRC-2, 5', concentration 5); 38% (DRC-2, 5', concentration 10); 39% (DRC-2, 5', concentration 20); 37% (DRC-2, 5', concentration 40); 28% (DRC-2, 5', concentration 80). For the same compound, the “% inhibition Apo pol 5'” value (conc 10 (unit not given); 5'; DRC-2) turned out to be 38%. Moreover, the “% inhibition Apol 40'” value is reported as 6.5% (DRC-2, 40', concentration 2.5); 8% (DRC-2, 40', concentration 5); 36% (DRC-2, 40', concentration 10); 42% (DRC-2, 40', concentration 20); 53% (DRC-2, 40', concentration 40); 56% (DRC-2, 40', concentration 80). Moreover, the “% inhibition ApPOL 90'” value (DRC-2, 90', concentration 2.5) is reported as 4%; the “% inhibition ApPOL 90'” value (DRC-2, 90', concentration 5) is given as 4%; the “% inhibition ApPOL 90'” value (DRC-2, 90', concentration 10) came to 29%; the “% inhibition ApPOL 90'” value (DRC-2, 90', concentration 20) is on record as 38%; the “% inhibition ApPOL 90'” value (DRC-2, 90', concentration 40) is given as 54%; the “% inhibition ApPOL 90'” value (DRC-2, 90', concentration 80) was determined as 62%. Further, the “% inhibition ApPOL 90'” value (conc 2.5 (unit not given); 90'; DRC-2) was 4%, the “% inhibition ApPOL 90'” value (conc 5 (unit not given); 90'; DRC-2) was determined as 4% and the “% inhibition ApPOL 90'” value (conc 20 (unit not given); 90'; DRC-2) worked out at 38%.

Turning to `O=C(Nc1nnc(-c2ccno2)o1)c1ccc2ncsc2c1` [Molecule 62], the IC50 under setting [1] was determined as 14.2 µM.

Turning to `O=C(c1c[nH]c2ncccc12)N1CCCC1` [Molecule 63], the IC50 under setting [1] was 21.4 µM.
